In patent US9840495B2, “Oxindole derivatives carrying a piperidyl-substituted azetidinyl substituent and use thereof for treating vasopressine-related diseases” (AbbVie Deutschland GmbH & Co. KG, priority 2013, dated 2017):
Counter-ions that a name gives are not always drawn.

Tests used:
[1] = target: T1, human vasopressin V1b receptor (Homo sapiens, UniProt P47901); assay: biochemical
T1 sequence (P47901 1-424): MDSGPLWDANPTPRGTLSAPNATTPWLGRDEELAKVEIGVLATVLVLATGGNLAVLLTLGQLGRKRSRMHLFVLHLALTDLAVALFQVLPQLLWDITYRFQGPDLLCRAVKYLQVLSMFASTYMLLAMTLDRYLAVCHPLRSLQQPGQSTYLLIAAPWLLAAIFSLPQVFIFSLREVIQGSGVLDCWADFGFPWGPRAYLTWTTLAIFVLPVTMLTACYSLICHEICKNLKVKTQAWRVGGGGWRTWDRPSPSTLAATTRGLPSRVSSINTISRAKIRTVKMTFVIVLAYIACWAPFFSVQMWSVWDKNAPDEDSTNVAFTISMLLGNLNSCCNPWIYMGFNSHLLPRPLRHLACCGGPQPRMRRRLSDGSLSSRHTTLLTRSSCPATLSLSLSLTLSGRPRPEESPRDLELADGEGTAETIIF

[2] = target: human vasopressin V1a receptor (Homo sapiens, UniProt P37288); assay: Vasopressin V1a receptor binding assay (125I-AVP displacement, CHO-K1 membranes); details: selectivity quotient, human V1a vs human V1b receptor binding
human vasopressin V1a receptor, sequence (P37288 whole entry): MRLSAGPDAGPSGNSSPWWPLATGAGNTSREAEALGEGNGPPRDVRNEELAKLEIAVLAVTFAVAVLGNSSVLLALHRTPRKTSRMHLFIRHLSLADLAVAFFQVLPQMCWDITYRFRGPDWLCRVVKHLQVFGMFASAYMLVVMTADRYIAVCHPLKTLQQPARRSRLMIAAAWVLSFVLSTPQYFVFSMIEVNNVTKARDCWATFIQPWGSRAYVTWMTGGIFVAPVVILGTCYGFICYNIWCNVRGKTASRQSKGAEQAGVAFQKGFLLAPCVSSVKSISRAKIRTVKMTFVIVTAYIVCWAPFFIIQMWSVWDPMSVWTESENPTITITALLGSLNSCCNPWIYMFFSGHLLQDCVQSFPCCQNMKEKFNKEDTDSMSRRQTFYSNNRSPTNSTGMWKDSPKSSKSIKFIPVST

SMILES | Ki [1] [nM] | Ki(h-V1a)/Ki(h-V1b) [2]
CCOc1ncccc1[C@]1(NC(=O)N2CC(N3CCC(N4CCOCC4)CC3)C2)C(=O)N(S(=O)(=O)c2ccc(F)cc2OC)c2ccc(C#N)cc21 [Example 28, (S)—N-(5-cyano-3-(2-ethoxypyridin-3-yl)-1-((4-fluoro-2-methoxyphenyl)sulfonyl)-2-oxoindolin-3-yl)-3-(4-morpholinopiperidin-1-yl)azetidine-1-carboxamide] | 1 to 10 | +++ (>75)
COc1ccccc1S(=O)(=O)N1C(=O)[C@@](NC(=O)N2CC(N3CCC(N(C)C4COC4)CC3)C2)(c2cccnc2OC)c2cc(C#N)ccc21 [Example 29, (S)—N-(5-Cyano-1-((2-methoxyphenyl)sulfonyl)-3-(2-methoxypyridin-3-yl)-2-oxoindolin-3-yl)-3-(4-(methyl(oxetan-3-yl)amino)piperidin-1-yl)azetidine-1-carboxamide] | 1 to 10 | + (10-<25)
COc1cc(F)ccc1S(=O)(=O)N1C(=O)[C@@](NC(=O)N2CC(N3CCC(N(C)C4COC4)CC3)C2)(c2cccnc2OC)c2cc(C#N)ccc21 [Example 30, (S)—N-(5-Cyano-1-((4-fluoro-2-methoxyphenyl)sulfonyl)-3-(2-methoxypyridin-3-yl)-2-oxoindolin-3-yl)-3-(4-(methyl(oxetan-3-yl)amino)piperidin-1-yl)azetidine-1-carboxamide] | 1 to 10 | + (10-<25)
COc1ncccc1[C@]1(NC(=O)N2CC(N3CCC(N(C)C4COC4)CC3)C2)C(=O)N(S(=O)(=O)c2ccc(F)cc2)c2ccc(C#N)cc21 [Example 31, (S)—N-(5-Cyano-1-((4-fluorophenyl)sulfonyl)-3-(2-methoxypyridin-3-yl)-2-oxoindolin-3-yl)-3-(4-(methyl(oxetan-3-yl)amino)piperidin-1-yl)azetidine-1-carboxamide] | 1 to 10 | + (10-<25)
COc1ncccc1[C@]1(NC(=O)N2CC(N3CCC(N(C)C4COC4)CC3)C2)C(=O)N(S(=O)(=O)c2ccc(F)cc2F)c2ccc(C#N)cc21 [Example 33, (S)—N-(5-Cyano-1-((2,4-difluorophenyl)sulfonyl)-3-(2-methoxypyridin-3-yl)-2-oxoindolin-3-yl)-3-(4-(methyl(oxetan-3-yl)amino)piperidin-1-yl)azetidine-1-carboxamide] | 10 to 100 | + (10-<25)
COc1ccc(S(=O)(=O)N2C(=O)[C@@](NC(=O)N3CC(N4CCC(N(C)C5COC5)CC4)C3)(c3cccnc3OC)c3cc(C#N)ccc32)cc1 [Example 35, (S)—N-(5-cyano-1-((4-methoxyphenyl)sulfonyl)-3-(2-methoxypyridin-3-yl)-2-oxoindolin-3-yl)-3-(4-(methyl(oxetan-3-yl)amino)piperidin-1-yl)azetidine-1-carboxamide] | 1 to 10 | ++ (25-75)
CCOc1ncccc1[C@]1(NC(=O)N2CC(N3CCC(N4CCOCC4)CC3)C2)C(=O)N(S(=O)(=O)c2ccc(OC)cn2)c2ccc(C#N)cc21 [Example 36, (S)—N-(5-Cyano-3-(2-ethoxypyridin-3-yl)-1-((5-methoxypyridin-2-yl)sulfonyl)-2-oxoindolin-3-yl)-3-(4-morpholinopiperidin-1-yl)azetidine-1-carboxamide×TFA] | 1 to 10 | + (10-<25)
COc1ccc(S(=O)(=O)N2C(=O)[C@@](NC(=O)N3CC(N4CCC(N(C(C)C)C5COC5)CC4)C3)(c3cccnc3OC)c3cc(C#N)ccc32)c(OC)c1 [Example 38, (S)—N-(5-Cyano-1-((2,4-dimethoxyphenyl)sulfonyl)-3-(2-methoxypyridin-3-yl)-2-oxoindolin-3-yl)-3-(4-(isopropyl(oxetan-3-yl)amino)piperidin-1-yl)azetidine-1-carboxamide] | 10 to 100 | + (10-<25)
CCOc1ncccc1[C@]1(NC(=O)N2CC(N3CCC(N4CC(F)(F)C4)CC3)C2)C(=O)N(S(=O)(=O)c2ccc(OC)cc2OC)c2ccc(C#N)cc21 [Example 39, (S)—N-(5-Cyano-1-((2,4-dimethoxyphenyl)sulfonyl)-3-(2-ethoxypyridin-3-yl)-2-oxoindolin-3-yl)-3-(4-(3,3-difluoroazetidin-1-yl)piperidin-1-yl)azetidine-1-carboxamide] | 10 to 100 | +++ (>75)
CCOc1ncccc1[C@]1(NC(=O)N2CC(N3CCC(N4CCC(F)(F)CC4)CC3)C2)C(=O)N(S(=O)(=O)c2ccc(OC)cc2OC)c2ccc(C#N)cc21 [Example 40, (S)—N-(5-Cyano-1-((2,4-dimethoxyphenyl)sulfonyl)-3-(2-ethoxypyridin-3-yl)-2-oxoindolin-3-yl)-3-(4,4-difluoro-[1,4′-bipiperidin]-1′-yl)azetidine-1-carboxamide] | < 1 | +++ (>75)

Other lines, results leading:

Ki [1] [nM] | Ki(h-V1a)/Ki(h-V1b) [2] | SMILES
1 to 10 | +++ (>75) | CCOc1ncccc1[C@]1(NC(=O)N2CC(N3CCC(N4CCOCC4)CC3)C2)C(=O)N(S(=O)(=O)c2cc(F)c(OC)cc2OC)c2ccc(C#N)cc21 [Example 24, (S)—N-(5-Cyano-3-(2-ethoxypyridin-3-yl)-1-((5-fluoro-2,4-dimethoxyphenyl)sulfonyl)-2-oxoindolin-3-yl)-3-(4-morpholinopiperidin-1-yl)azetidine-1-carboxamide]
< 1 | ++ (25-75) | CCOc1ncccc1[C@]1(NC(=O)N2CC(N3CCC(N4CCOCC4)CC3)C2)C(=O)N(S(=O)(=O)c2ccc(OC)cc2)c2ccc(C#N)cc21 [Example 25, (S)—N-(5-Cyano-3-(2-ethoxypyridin-3-yl)-1-((4-methoxyphenyl)sulfonyl)-2-oxoindolin-3-yl)-3-(4-morpholinopiperidin-1-yl)azetidine-1-carboxamide]
< 1 | +++ (>75) | CCOc1ncccc1[C@]1(NC(=O)N2CC(N3CCC(N4CCOCC4)CC3)C2)C(=O)N(S(=O)(=O)c2ccc(OC)cc2F)c2ccc(C#N)cc21 [Example 27, (S)—N-(5-cyano-3-(2-ethoxypyridin-3-yl)-1-((2-fluoro-4-methoxyphenyl)sulfonyl)-2-oxoindolin-3-yl)-3-(4-morpholinopiperidin-1-yl)azetidine-1-carboxamide]
1 to 10 | + (10-<25) | COc1ccc(S(=O)(=O)N2C(=O)[C@@](NC(=O)N3CC(N4CCC(N(C)C5COC5)CC4)C3)(c3cccnc3OC)c3cc(C#N)ccc32)c(F)c1 [Example 32, (S)—N-(5-Cyano-1-((2-fluoro-4-methoxyphenyl)sulfonyl)-3-(2-methoxypyridin-3-yl)-2-oxoindolin-3-yl)-3-(4-(methyl(oxetan-3-yl)amino)piperidin-1-yl)azetidine-1-carboxamide]
1 to 10 | +++ (>75) | CCOc1ncccc1[C@]1(NC(=O)N2CC(N3CCC(N4CCOCC4)CC3)C2)C(=O)N(S(=O)(=O)c2ccccc2OC)c2ccc(C#N)cc21 [Example 37, (S)—N-(5-Cyano-3-(2-ethoxypyridin-3-yl)-1-((2-methoxyphenyl)sulfonyl)-2-oxoindolin-3-yl)-3-(4-morpholinopiperidin-1-yl)azetidine-1-carboxamide]
